Columns and labels:
[1] = biological target: RIPK2 kinase (Homo sapiens (Human), UniProt O43353); assay: Inhibition of RIPK2 kinase activity (ADP-Glo kit); type: biochemical; details: ATP 50 μM, 27° C. 2.5 hours
Description: The inhibition of RIPK2 kinase activity in vitro was determined by the following method.
The inhibition effect of the compounds of the present invention on RIPK2 kinase activity was determined by the following experimental method:
RIPK2 kinase assay kit (V4084, Promega) was used to assay enzyme activity. 2 μl of RIPK2 enzyme solution (the final concentration of enzyme in the reaction system was 0.5 ng/μL) formulated with reaction buffer (40 mM Tris pH 7.5, 20 mM MgCl2, 0.1 mg/ml BSA), 1 μl of a 3-fold gradient dilution of Compound 1 dissolved in 5% DMSO, and 2 μl of a mixed solution of ATP and MBP substrate peptide (the final concentration of ATP was 50 μM, and the final concentration of substrate was 0.2 μg/μL) were added successively to a 384-well plate (4514, Corning). After reaction at 27° C. for 2.5 hours, 5 μl of ADP-Glo solution in the kit was added to each well, then the plate was placed at 27° C. for 40 minutes. 10 μl of kinase assay reagent was then added to each well, then the plate was placed at 27° C. for 30 minutes. The chemiluminescence signal values were measured with a Victor 3 (PerkinElmer) multi-function microplate reader. The IC50 values of the compounds for enzyme inhibition were calculated using Graphpad prism software based on each concentration of the compound and the corresponding signal value thereof.

[2] = Toxicity assay, repeated intragastrical administration to SD rats for 7 days; type: in vivo; details: 30 and 100 mg/kg qd
Description: Evaluation of the toxicity of TGFβ inhibitor Compound 1 repeatedly intragastrically administered to SD rats for 7 days.
Twenty six SPF grade SD rats (approximately 180˜200 g, 6-7 weeks old, half male and half female) were purchased from Shanghai Jiesijie Laboratory Animal Co., Ltd.
Feeding conditions: SPF grade, animals were housed in plastic transparent rat cages, and 2-3 rats per cage. Room temperature: 20-26° C., relative humidity: 40-70%. 12 hours light/12 hours dark were alternated. The rats had free access to pellet feed for rats. The rats had free access to high-temperature sterilized water via drinking bottle.
The animals were divided randomly into 5 groups, i.e. solvent control group, compound 1—30 mg/kg group, compound 1—100 mg/kg group, and the corresponding toxicokinetics groups. There were 6 rats in solvent control group, compound 1—30 mg/kg group and compound 1—100 mg/kg group, and there were 4 rats in each corresponding toxicokinetics groups, half male and half female.
The dose of the test compound in the 7-day toxicity assay in rats was 30 and 100 mg/kg (qd), respectively, and the administration was continued for 7 days. Administration route: intragastrical administration, administration dosage: 10 ml/kg, administration frequency and administration period: daily morning administration, continuous administration for 7 days.
The results of various indicators were entered into computer Excel and entered and processed by SPSS software package.
The clinical symptom, food intake and anatomical gross observation were not processed statistically, and only the observation data of the observation items in the protocol were listed. Indicators such as body weight, organ weight, and clinical examination were processed statistically using SPSS.

Chain of RIPK2 kinase (O43353 whole entry): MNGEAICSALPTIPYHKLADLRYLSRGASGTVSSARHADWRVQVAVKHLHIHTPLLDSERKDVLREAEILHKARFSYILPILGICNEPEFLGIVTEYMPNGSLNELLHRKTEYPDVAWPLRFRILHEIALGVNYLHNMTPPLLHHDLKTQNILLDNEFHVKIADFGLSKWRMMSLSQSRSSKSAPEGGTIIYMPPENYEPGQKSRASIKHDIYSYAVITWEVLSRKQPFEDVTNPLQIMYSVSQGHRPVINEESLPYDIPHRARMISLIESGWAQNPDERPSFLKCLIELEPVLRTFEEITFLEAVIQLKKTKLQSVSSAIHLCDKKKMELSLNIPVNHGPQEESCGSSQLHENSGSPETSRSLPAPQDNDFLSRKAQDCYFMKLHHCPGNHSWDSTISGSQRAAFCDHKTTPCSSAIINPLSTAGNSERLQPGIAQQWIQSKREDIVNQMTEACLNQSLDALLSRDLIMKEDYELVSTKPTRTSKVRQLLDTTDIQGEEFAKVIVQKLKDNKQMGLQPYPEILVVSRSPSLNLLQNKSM

Cc1cccc(-c2nn(C3CCC3)cc2-c2ccnc(-c3ccc(S(C)(=O)=O)cc3)c2)n1 [Example 1, 4-(1-Cyclobutyl-3-(6-methylpyridin-2-yl)-1H-pyrazol-4-yl)-2-(4-(methylsulfonyl)phenyl)pyridine]
IC50 [1]: 1.2 µM | Blood biochemical indicators ([2]; 7 days): No toxicological changes | Coagulation function and urine indexes compared with the solvent control group ([2]; 7 days): no obvious abnormalities | Food intake ([2]; 7 days): no obvious change | Safety under the conditions of this assay ([2]; 7 days): good safety | Clinical observation of the animals during the administration ([2]; 7 days, intragastrical): no obvious abnormality | Body weight and body weight growth rate compared with the solvent control group ([2]; 7 days, p>0.05): no significant difference | Gross pathological anatomy (autopsy) ([2]; after the last administration): no obvious abnormalities

— US10899741B2, “3,4-bipyridyl pyrazole derivative, and preparation method therefor and medical application thereof” (Jiangsu Hengrui Medicine Co., Ltd., priority 2016, dated 2021)
